Source: US9029404B2, “Apoptosis-inducing agents for the treatment of cancer and immune and autoimmune diseases” (AbbVie Inc., priority 2008, dated 2015)

What follows are compounds tested against GST-Bcl-2 (Homo sapiens, UniProt P10415) (assay: Time Resolved-Fluorescence Resonance Energy Transfer (TR-FRET) Bcl-2 binding assay). Conditions: competition with F-Bak peptide probe (100 nM); GST-Bcl-2 1 nM; Tb-anti-GST 1 nM; 3 hours at room temperature; Wang's equation.
Chain of GST-Bcl-2 (P10415 whole entry): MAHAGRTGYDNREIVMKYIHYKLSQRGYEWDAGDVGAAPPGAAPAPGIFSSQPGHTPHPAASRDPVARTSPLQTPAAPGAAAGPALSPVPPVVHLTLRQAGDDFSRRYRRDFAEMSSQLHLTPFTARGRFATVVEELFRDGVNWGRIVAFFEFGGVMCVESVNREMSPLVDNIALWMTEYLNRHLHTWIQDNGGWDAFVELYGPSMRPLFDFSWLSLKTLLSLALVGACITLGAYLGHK
How it was run: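 Competition TR-FRET: GST-Bcl-2 with fluorescent Bak peptide probe and Tb-anti-GST antibody, compounds serially diluted from 50 μM (2× start, 10% DMSO).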
Compound CC1(C)CCC(CN2CCN(c3ccc(C(=O)NS(=O)(=O)c4ccc(NC[C@H]5CN(C6COC6)CCO5)c([N+](=O)[O-])c4)c(Oc4cnc(N)c(Cl)c4)c3)CC2)=C(c2ccc(Cl)cc2)C1 [Example 448, 2-[(6-amino-5-chloropyridin-3-yl)oxy]-4-(4-{[2-(4-chlorophenyl)-4,4-dimethylcyclohex-1-en-1-yl]methyl}piperazin-1-yl)-N-{[3-nitro-4-({[(2S)-4-(oxetan-3-yl)morpholin-2-yl]methyl}amino)phenyl]sulfonyl}benzamide] has a Ki of less than 0.01 nM.
CC1(C)CCC(CN2CCN(c3ccc(C(=O)NS(=O)(=O)c4cnc(NCC5CCOCC5)c([N+](=O)[O-])c4)c(Oc4cnc(N)c(Cl)c4)c3)CC2)=C(c2ccc(Cl)cc2)C1 [Example 449, 2-[(6-amino-5-chloropyridin-3-yl)oxy]-4-(4-{[2-(4-chlorophenyl)-4,4-dimethylcyclohex-1-en-1-yl]methyl}piperazin-1-yl)-N-({5-nitro-6-[(tetrahydro-2H-pyran-4-ylmethyl)amino]pyridin-3-yl}sulfonyl)benzamide] gave a Ki of less than 0.01 nM.
Compound CC1(C)CCC(CN2CCN(c3ccc(C(=O)NS(=O)(=O)c4ccc(NCC5CCC6(CC5)COC6)c([N+](=O)[O-])c4)c(Oc4cnc(N)c(Cl)c4)c3)CC2)=C(c2ccc(Cl)cc2)C1 [Example 450, 2-[(6-amino-5-chloropyridin-3-yl)oxy]-4-(4-{[2-(4-chlorophenyl)-4,4-dimethylcyclohex-1-en-1-yl]methyl}piperazin-1-yl)-N-({3-nitro-4-[(2-oxaspiro[3.5]non-7-ylmethyl)amino]phenyl}sulfonyl)benzamide] has a Ki of less than 0.01 nM.
Compound CC1(C)CCC(CN2CCN(c3ccc(C(=O)NS(=O)(=O)c4ccc(NC[C@H]5CC[C@H](N6CCOCC6)CC5)c([N+](=O)[O-])c4)c(Oc4cnc(N)c(Cl)c4)c3)CC2)=C(c2ccc(Cl)cc2)C1 [Example 451, 2-[(6-amino-5-chloropyridin-3-yl)oxy]-4-(4-{[2-(4-chlorophenyl)-4,4-dimethylcyclohex-1-en-1-yl]methyl}piperazin-1-yl)-N-{[4-({[trans-4-(morpholin-4-yl)cyclohexyl]methyl}amino)-3-nitrophenyl]sulfonyl}benzamide] has a Ki of less than 0.01 nM.
In the case of CC1(C)CCC(CN2CCN(c3ccc(C(=O)NS(=O)(=O)c4ccc(N[C@H]5CC[C@@H](N6CCOCC6)CC5)c([N+](=O)[O-])c4)c(Oc4cnc(N)c(Cl)c4)c3)CC2)=C(c2ccc(Cl)cc2)C1 [Example 452, 2-[(6-amino-5-chloropyridin-3-yl)oxy]-4-(4-{[2-(4-chlorophenyl)-4,4-dimethylcyclohex-1-en-1-yl]methyl}piperazin-1-yl)-N-[(4-{[cis-4-(morpholin-4-yl)cyclohexyl]amino}-3-nitrophenyl)sulfonyl]benzamide], the Ki is reported as 0.112 nM.
For CC1(C)CCC(CN2CCN(c3ccc(C(=O)NS(=O)(=O)c4cnc(OCC5CCC(C)(O)CC5)c(C#N)c4)c(Oc4cc(F)cc5[nH]ncc45)c3)CC2)=C(c2ccc(Cl)cc2)C1 (stereo not drawn) [Example 453, 4-(4-{[2-(4-chlorophenyl)-4,4-dimethylcyclohex-1-en-1-yl]methyl}piperazin-1-yl)-N-({5-cyano-6-[(trans-4-hydroxy-4-methylcyclohexyl)methoxy]pyridin-3-yl}sulfonyl)-2-[(6-fluoro-1H-indazol-4-yl)oxy]benzamide], the Ki was less than 0.01 nM.
Compound CC1(C)CCC(CN2CCN(c3ccc(C(=O)NS(=O)(=O)c4ccc(N[C@@H]5CCN(C6COC6)C5)c([N+](=O)[O-])c4)c(Oc4cnc(N)c(Cl)c4)c3)CC2)=C(c2ccc(Cl)cc2)C1 [Example 455, 2-[(6-amino-5-chloropyridin-3-yl)oxy]-4-(4-{[2-(4-chlorophenyl)-4,4-dimethylcyclohex-1-en-1-yl]methyl}piperazin-1-yl)-N-[(3-nitro-4-{[(3R)-1-(oxetan-3-yl)pyrrolidin-3-yl]amino}phenyl)sulfonyl]benzamide] has a Ki of 0.011 nM.
